# “And” between values parts separate entries of the source, which are not always exact repeats. Equal values may be shown once. Square brackets hold non-standard residues; d marks the D form. Peptide text beside a SMILES is read from it. * marks the point of attachment. Lys(5-FITC)NH2 = NC(=O)[C@H](CCCCNC(=S)Nc1ccc2c(c1)C(=O)OC21c2ccc(O)cc2Oc2cc(O)ccc21)N*; FITC = O=C1OC2(c3ccc(O)cc3Oc3cc(O)ccc32)c2ccc(NC(=S)*)cc21; Phe(4-F) = N[C@@H](Cc1ccc(F)cc1)C(=O)O; d2Nal = N[C@H](Cc1ccc2ccccc2c1)C(=O)O; NMeL = CN[C@@H](CC(C)C)C(=O)O; dNle = CCCC[C@@H](N)C(=O)O; Abu = CC[C@H](N)C(=O)O
# Experiments:
# K-Ras(G12V) = target: T1, K-Ras(G12V) (Homo sapiens, UniProt P01116, G12V); assay: Fluorescence anisotropy (FA) binding of FITC-labeled cyclic peptides to K-Ras; details: Table 1, resynthesized FITC-labeled library hits, read-out: KD (μM), affinity for K-Ras
# T1 construct: The G12V mutant K-Ras (amino acids 1-185) was recombinantly fused to glutathione 5-transferase (GST) at its N-terminus; GST (N, cleaved yes); made in house; host or cells: Escherichia coli BL21
# Description: The cells were grown at 37° C. in Luria broth supplemented with 0.05 mg/mL kanamycin to an OD600 of 0.6 when protein expression was induced by addition of IPTG for a final concentration of 1 mM. After 5 h of incubation at 30° C., the cells were harvested by centrifugation. The cell pellets were lysed by sonication in a lysis buffer (40 mM Tris-HCl, 150 mM NaCl, 0.5% Triton X-100, 5 mM (3-mercaptoethanol, pH 8.0) containing a protease inhibitor cocktail tablets (Sigma). The crude cell lysate was loaded onto a glutathione-Sepharose 4B column (GE Healthcare) and the bound GST-K-Ras was eluted with an elution buffer (50 mM Tris, pH 8.0, 10 mM glutathione). After buffer exchange into PBS, the protein was quickly frozen and stored at −80° C. To generate K-Ras without the GST tag, the GST-K-Ras protein (2 mg in PBS) was treated with 20 units of thrombin (GE Healthcare) for 16 h at 4° C. The reaction mixture was passed through a glutathione-Sepharose 4B column to remove the released GST and the resulting K-Ras protein was stored at −80° C.
# (§2) For cyclic peptides derived from single library beads (library screening), K-Ras protein (non-GST fusion, 0-20 μM) was incubated with the TMR-labeled peptide (50 or 100 nM) in 20 μL, of the blocking buffer for 2.5 h at 24° C. The FA values were measured on a Molecular Devices Spectramax M5 spectrofluorimeter, with excitation and emission wavelengths at 545 and 585 nm, respectively. Equilibrium dissociation constants (KD) were determined by plotting the FA values as a function of K-Ras concentration and fitting the data to the equation
# (§3) where Y is the measured anisotropy at a given K-Ras concentration x; L is the peptide concentration; Qb/Qf is the correction fact for dye-protein interaction; Amax is the maximum anisotropy at saturating K-Ras concentration; and Amin is the minimum anisotropy. FA analyses with resynthesized FITC-labeled peptides were similarly carried oμL, except that the excitation and emission wavelengths were at 494 and 520 nm, respectively.
# H1299 lung cancer cells = assay type: cell-based; details: for IC50: 72 h; for anti-proliferative activity against lung cancer cells (in words): MTT assay
# Description: MTT assays (Mosmann, T. (1983) J. Immunol. Methods 65:55) were performed with H1299 lung cancer cells. One hundred μL of H1299 cells (0.5×10^5 cells/mL) were seeded in each well of a 96-well culture plate and allowed to grow overnight in Advanced RPMI medium supplemented with 10% fetal bovine serum (FBS) and 1% penicillin-streptomycin. Varying concentrations of cyclic peptide (0-25 μM) were added to the each well and the cells were incubated at 37° C. with 5% CO2 for 72 hours. Ten μL of a MTT stock solution (Roche) was added into each well. The plate was incubated at 37° C. for 4 h. Then 100 μL of SDS-HCl solubilizing buffer was added into each well, and the resulting solution was mixed thoroughly. The plate was incubated at 37° C. overnight. The absorbance of the formazan product was measured at 570 nm using a Molecular Devices Spectramax M5 plate reader. Each experiment was performed in triplicates and the cells without any peptide added were treated as control.
# [1] = target: T2, Ras(G12V)-Raf RBD interaction (Homo sapiens, UniProt P01116, G12V); assay: HTRF assay, inhibition of Ras-Raf RBD interaction; assay type: binding; details: for increase of Ras binding affinity by substitution: relative to parent 9A5/9A6
# T2 construct: The G12V mutant K-Ras (amino acids 1-185) was recombinantly fused to glutathione 5-transferase (GST) at its N-terminus; GST (N, cleaved yes); made in house; host or cells: Escherichia coli BL21
# Description: Recombinant HA-tagged K-Ras (no GST, 50 nM), GST-Raf RBD (50 nM each), a monoclonal anti-HA antibody labeled with acceptor d2 (2 μg/mL), a monoclonal anti-GST antibody labeled with donor Tb (0.25 μg/mL) (Cisbio), and increasing concentrations of cyclic peptide (0-20 μM) were mixed in PBS (total volume of 20 μL) in a 384-well plate. The plate was incubated overnight at 4° C. and the HTRF signal was measured on a Molecular Devices Spectramax M5 or a Tecan infinite M1000 Pro plate reader. The data were analyzed by Prism 6.0 from Graphpad Software, Inc. (La Jolla, Calif.) and IC50 values were obtained by fitting the data to dose-response-inhibition curve.
# Ras-GPPNP = Ras-GPPNP (Homo sapiens, UniProt P01116, G12V); assay: biochemical
# Description: (§4) To prepare Ras-GTP, purified K-Ras was incubated with 20 mM EDTA plus 2 mM GTP in PBS overnight at 4° C. After addition of 40 mM of MgCl2, the protein was dialyzed against PBS.
# as §2
# (§5) FA analyses with resynthesized FITC-labeled peptides were similarly carried oμL, except that the excitation and emission wavelengths were at 494 and 520 nm, respectively.
# Ras-GTP = Ras-GTP (Homo sapiens, UniProt P01116, G12V); assay: biochemical
# Description: as §4, §2, §5
# Ras-GDP = Ras-GDP (Homo sapiens, UniProt P01116, G12V); assay: biochemical
# Description: as §4, §2, §5
# Rac1 = target: T3, Rac1 (Homo sapiens, UniProt P63000); assay: FA binding of FITC-9A5 to recombinant Rac1
# T3 construct: purchased Origene (Rockville, Md.)
# Description: (§1) Reagents for peptide synthesis were purchased from Peptides International (Louisville, Ky.), NovaBiochem (La Jolla, Calif.), Anaspec (San Jose, Calif.), Chem-Impex International Inc. (Wood Dale, Ill.), or Aapptec (Lousiville, Ky.). N-Hydroxysuccinimidyl biotin was purchased from Chem-Impex International (Wood Dale, Ill.) and N-(9-fluorenylmethoxycarbonyloxy)succinimide (Fmoc-OSu) from Advanced ChemTech. Phenyl isothiocyanate (PITC), isopropyl13-D-1-thiogalactopyranoside (IPTG), protease inhibitor cocktail tablets, ampicillin and kanamycin were purchased from Sigma-Aldrich. Cell proliferation kit (MTT) was purchased from Roche (Indianapolis, Ind.). Cell culture media, fetal bovine serum, penicillin-streptomycin, 0.25% trypsin-EDTA, DPBS (2.67 mM potassium chloride, 1.47 mM potassium phosphate monobasic, 137 mM sodium chloride, 8.06 mM sodium phosphate dibasic), streptavidin-coated Dynabeads M-280, Texas red N-hydroxysuccinimide ester, and tetramethylrhodamine (TMR) azide were purchased from Invitrogen (Carlsbad, Calif.). Anti-GST-Tb and Anti-HA d2 antibodies were purchased from Cisbio (Bedford, Mass.). Recombinant K-Ras WT, H-Ras WT, Rac1, RhoA and CDC42 were purchased from Origene (Rockville, Md.). Solvents and other chemical reagents were purchased from Sigma-Aldrich or VWR (West Chester, Pa.).
# bovine serum albumin = target: T4, bovine serum albumin (Bos taurus, UniProt P02769); assay: FA binding of FITC-9A5 to control protein BSA
# T4 construct: from tissue; host or cells: bovine serum (from the name only)
# Description: The FA values were measured on a Molecular Devices Spectramax M5 spectrofluorimeter, with excitation and emission wavelengths at 545 and 585 nm, respectively. Equilibrium dissociation constants (KD) were determined by plotting the FA values as a function of K-Ras concentration and fitting the data to the equation
# as §3
# RhoA = target: T5, RhoA (Homo sapiens, UniProt P61586); assay: FA binding of FITC-9A5 to recombinant RhoA
# T5 construct: purchased Origene (Rockville, Md.)
# Description: as §1
# H-Ras(WT) = target: T6, H-Ras(WT) (Homo sapiens, UniProt P01112); assay: FA binding of FITC-9A5 to H-Ras; details: FITC-labeled peptide
# T6 construct: purchased Origene (Rockville, Md.)
# Description: as §1
# T1 sequence (P01116 1-185 isoform P01116-2 G12V): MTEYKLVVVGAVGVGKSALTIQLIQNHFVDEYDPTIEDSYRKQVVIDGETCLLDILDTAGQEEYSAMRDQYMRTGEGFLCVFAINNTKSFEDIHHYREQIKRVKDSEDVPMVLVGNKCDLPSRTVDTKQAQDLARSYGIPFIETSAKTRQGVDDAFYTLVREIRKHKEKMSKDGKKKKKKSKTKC
# T2 sequence (P01116 1-185 isoform P01116-2 G12V): as above
# T4 sequence (P02769 25-607): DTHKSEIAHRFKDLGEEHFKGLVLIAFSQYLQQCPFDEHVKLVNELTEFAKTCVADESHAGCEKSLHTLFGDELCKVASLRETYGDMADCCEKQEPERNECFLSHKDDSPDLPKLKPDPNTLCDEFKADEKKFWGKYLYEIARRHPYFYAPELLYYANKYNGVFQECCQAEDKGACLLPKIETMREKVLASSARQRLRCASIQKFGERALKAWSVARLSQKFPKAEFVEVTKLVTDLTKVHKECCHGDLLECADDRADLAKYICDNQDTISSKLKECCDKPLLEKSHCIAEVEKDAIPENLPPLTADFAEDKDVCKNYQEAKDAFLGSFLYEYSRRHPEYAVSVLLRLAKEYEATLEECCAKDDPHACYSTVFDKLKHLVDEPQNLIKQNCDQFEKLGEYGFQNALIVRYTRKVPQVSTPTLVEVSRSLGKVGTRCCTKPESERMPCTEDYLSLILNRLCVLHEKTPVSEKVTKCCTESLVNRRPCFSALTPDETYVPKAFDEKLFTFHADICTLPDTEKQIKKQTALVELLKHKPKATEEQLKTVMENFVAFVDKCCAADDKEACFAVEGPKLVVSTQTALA
# T5 sequence (P61586 whole entry): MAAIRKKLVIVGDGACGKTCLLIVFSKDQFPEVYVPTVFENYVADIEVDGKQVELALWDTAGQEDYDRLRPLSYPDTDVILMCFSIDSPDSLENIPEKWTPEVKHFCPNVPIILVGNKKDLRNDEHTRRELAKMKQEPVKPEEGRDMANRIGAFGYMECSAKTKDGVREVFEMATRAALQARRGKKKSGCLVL
# Ras-GPPNP, sequence (P01116 1-185 isoform P01116-2 G12V): as the sequence (P01116 1-185 isoform P01116-2 G12V) above
# Ras-GDP, sequence (P01116 1-185 isoform P01116-2 G12V): as above
# Ras-GTP, sequence (P01116 1-185 isoform P01116-2 G12V): as above
# T6 sequence (P01112 whole entry): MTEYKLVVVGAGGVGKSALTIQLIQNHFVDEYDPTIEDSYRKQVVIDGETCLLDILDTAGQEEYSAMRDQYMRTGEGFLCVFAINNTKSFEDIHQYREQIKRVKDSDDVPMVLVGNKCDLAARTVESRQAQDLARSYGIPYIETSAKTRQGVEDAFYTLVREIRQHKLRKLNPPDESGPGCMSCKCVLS
smiles,measurement,setting,value
CC(C)[C@H]1NC(=O)[C@H](Cc2ccc(O)cc2)NC(=O)[C@H](CCCNC(=N)N)NC(=O)[C@H](Cc2ccc(F)cc2)NC(=O)[C@H](CCCNC(=N)N)NC(=O)[C@@H](Cc2ccc3ccccc3c2)NC(=O)[C@H](CCCNC(=N)N)NC(=O)[C@H](CCCNC(=N)N)NC(=O)[C@H](CCC(=O)N[C@@H](CCCCNC(=S)Nc2ccc3c(c2)C(=O)OC32c3ccc(O)cc3Oc3cc(O)ccc32)C(N)=O)NC(=O)[C@H](Cc2ccc(F)cc2)NC1=O [Cyclorasin 7A] (cyclo(E(Lys(5-FITC)NH2)RR[d2Nal]R[Phe(4-F)]RY[dV][Phe(4-F)])),Kd,K-Ras(G12V),0.88 ± 0.27 µM
CCCC[C@H]1NC(=O)[C@H](Cc2ccc(F)cc2)NC(=O)[C@H](CCCNC(=N)N)NC(=O)[C@@H](Cc2ccc3ccccc3c2)NC(=O)[C@H](CCCNC(=N)N)NC(=O)[C@H](CCCNC(=N)N)NC(=O)[C@@H](CCCNC(=N)N)NC(=O)[C@@H](C(C)C)NC(=O)[C@H]([C@@H](C)O)NC(=O)[C@H](Cc2c[nH]c3ccccc23)NC(=O)[C@H](CCC(N)=O)NC1=O [Cyclorasin 9A14] (cyclo(WT[dV][dR]RR[d2Nal]R[Phe(4-F)][dNle]Q)),IC50,H1299 lung cancer cells,5400 ± 2400 nM
same,increase of Ras binding affinity by substitution,[1],2 fold
"C[C@H]1NC(=O)[C@H](CCCNC(=N)N)NC(=O)[C@H](Cc2c[nH]c3ccccc23)NC(=O)[C@H](CCCNC(=N)N)NC(=O)[C@H](Cc2ccc(F)cc2)NC(=O)[C@H](CCCNC(=N)N)NC(=O)[C@@H](Cc2ccc3ccccc3c2)NC(=O)[C@H](CCCNC(=N)N)NC(=O)[C@H](CCCNC(=N)N)NC(=O)[C@H](CCC(N)=O)NC1=O [Cyclorasin 12A, (Arg-Arg-nal-Arg-Fpa-Arg-Trp-Arg-ala-Gln)] (cyclo(RR[d2Nal]R[Phe(4-F)]RWR[dA]Q))",cell permeability / intracellular fluorescence,A549 lung cancer cells,cell permeable
same,anti-proliferative activity against lung cancer cells (in words),H1299 lung cancer cells,weak anti-proliferative activity
"CCCC[C@H]1NC(=O)[C@H](Cc2ccc(F)cc2)NC(=O)[C@H](CCCNC(=N)N)NC(=O)[C@@H](Cc2ccc3ccccc3c2)NC(=O)[C@H](CCCNC(=N)N)NC(=O)[C@H](CCCNC(=N)N)NC(=O)[C@H](CCC(=O)N[C@@H](CCCCNC(=S)Nc2ccc3c(c2)C(=O)OC32c3ccc(O)cc3Oc3cc(O)ccc32)C(N)=O)NC(=O)[C@@H](C)NC(=O)[C@H]([C@@H](C)O)NC(=O)[C@H](Cc2c[nH]c3ccccc23)NC(=O)[C@@H](CO)NC1=O [Cyclorasin 9A, (Arg-Arg-nal-Arg-Fpa-nle-ser-Trp-Thr-ala-Gln)] (cyclo(RR[d2Nal]R[Phe(4-F)][dNle][dS]WT[dA]E(Lys(5-FITC)NH2)))",cell permeability / intracellular fluorescence,A549 lung cancer cells,cell permeable
same,IC50,H1299 lung cancer cells,18000 ± 4000 nM
same,anti-proliferative activity against lung cancer cells (in words),H1299 lung cancer cells,weak anti-proliferative activity
CC[C@@H]1NC(=O)[C@@H](Cc2ccccc2)NC(=O)[C@H](Cc2ccc(F)cc2)NC(=O)[C@@H](CC(N)=O)NC(=O)[C@H](Cc2ccc(F)cc2)NC(=O)[C@H](CCCNC(=N)N)NC(=O)[C@@H](Cc2ccc3ccccc3c2)NC(=O)[C@H](CCCNC(=N)N)NC(=O)[C@H](CCCNC(=N)N)NC(=O)[C@H](CCC(=O)N[C@@H](CCCCNC(=S)Nc2ccc3c(c2)C(=O)OC32c3ccc(O)cc3Oc3cc(O)ccc32)C(N)=O)NC1=O [Cyclorasin 13A] (cyclo([Abu]E(Lys(5-FITC)NH2)RR[d2Nal]R[Phe(4-F)][dN][Phe(4-F)][dF])),Kd,K-Ras(G12V),1 ± 0.2 µM
CC(C)C[C@H]1C(=O)N[C@@H](CCC(=O)N[C@@H](CCCCNC(=S)Nc2ccc3c(c2)C(=O)OC32c3ccc(O)cc3Oc3cc(O)ccc32)C(N)=O)C(=O)N[C@@H](CCCNC(=N)N)C(=O)N[C@@H](CCCNC(=N)N)C(=O)N[C@H](Cc2ccc3ccccc3c2)C(=O)N[C@@H](CCCNC(=N)N)C(=O)N[C@@H](Cc2ccc(F)cc2)C(=O)N[C@H](CC(N)=O)C(=O)N[C@H](Cc2ccc3ccccc3c2)C(=O)N1C [Cyclorasin 3A] (cyclo(E(Lys(5-FITC)NH2)RR[d2Nal]R[Phe(4-F)][dN][d2Nal][NMeL])),Kd,K-Ras(G12V),0.91 ± 0.23 µM
CCCC[C@H]1NC(=O)[C@H](Cc2ccc(F)cc2)NC(=O)[C@H](CCCNC(=N)N)NC(=O)[C@@H](Cc2ccc3ccccc3c2)NC(=O)[C@H](CCCCNC(=S)Nc2ccc3c(c2)C(=O)OC32c3ccc(O)cc3Oc3cc(O)ccc32)NC(=O)[C@H](CCCNC(=N)N)NC(=O)[C@H](CCCNC(=N)N)NC(=O)[C@@H](C)NC(=O)[C@H]([C@@H](C)O)NC(=O)[C@H](Cc2c[nH]c3ccccc23)NC(=O)[C@H](CCC(N)=O)NC1=O [FITC-9A5] (cyclo(K(FITC)[d2Nal]R[Phe(4-F)][dNle]QWT[dA]RR)),cell permeability / intracellular fluorescence,A549 lung cancer cells,"intense, defuse fluorescence throughout the cytoplasm"
same,Kd,Ras-GPPNP,640 nM
same,Kd,Ras-GTP,440 nM
same,Kd,Ras-GDP,2500 nM
same,Kd,Rac1,250 nM
same,Kd,bovine serum albumin,30000 nM and 31000 nM
same,Kd,RhoA,180 nM
same,Kd,H-Ras(WT),500 nM
C[C@H]1NC(=O)[C@H]([C@@H](C)O)NC(=O)[C@H](Cc2c[nH]c3ccccc23)NC(=O)[C@H](CCC(N)=O)NC(=O)[C@@H](CCCNC(=N)N)NC(=O)[C@H](Cc2ccc(F)cc2)NC(=O)[C@H](CCCNC(=N)N)NC(=O)[C@@H](Cc2ccc3ccccc3c2)NC(=O)[C@H](CCCNC(=N)N)NC(=O)[C@H](CCCNC(=N)N)NC(=O)[C@H](CCCNC(=N)N)NC1=O [Cyclorasin 9A45] (cyclo(WT[dA]RRR[d2Nal]R[Phe(4-F)][dR]Q)),IC50,H1299 lung cancer cells,8900 ± 2100 nM
same,increase of Ras binding affinity by substitution,[1],4 fold
CCCC[C@H]1NC(=O)[C@H](Cc2ccc(F)cc2)NC(=O)[C@H](CCCNC(=N)N)NC(=O)[C@@H](Cc2ccc3ccccc3c2)NC(=O)[C@H](CCCNC(=N)N)NC(=O)[C@H](CCCNC(=N)N)NC(=O)[C@@H](CCCNC(=N)N)NC(=O)[C@@H](C)NC(=O)[C@H]([C@@H](C)O)NC(=O)[C@H](Cc2c[nH]c3ccccc23)NC(=O)[C@H](CCC(N)=O)NC1=O [Cyclorasin 9A6] (cyclo(WT[dA][dR]RR[d2Nal]R[Phe(4-F)][dNle]Q)),cell permeability / intracellular fluorescence,A549 lung cancer cells,improved cell permeability
same,higher potency than 9A1 against K-Ras,[1]; relative to 9A1,3 fold
